Laboratory results taken from paper PMC11756644 (ACS chemical biology, 2015).

Target: T1, tPAD1 (Saccharomyces cerevisiae, UniProt P33751)
T1 sequence (P33751 55-242): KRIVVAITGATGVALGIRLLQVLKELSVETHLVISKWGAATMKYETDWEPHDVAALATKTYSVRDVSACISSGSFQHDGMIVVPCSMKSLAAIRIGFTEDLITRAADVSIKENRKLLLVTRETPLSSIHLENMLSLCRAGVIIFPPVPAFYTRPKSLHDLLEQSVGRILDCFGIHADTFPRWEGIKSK
Experiment: UV-visible spectrum of purified protein
Assay type: binding
Conditions: co-purified from E. coli; oxidized FMN

## Cc1cc2nc3c(=O)[nH]c(=O)nc-3n(C[C@H](O)[C@H](O)[C@H](O)COP(=O)(O)O)c2cc1C [FMN]
  UV-visible spectrum of purified protein; LC-ESI-MS of released flavin: The presence of FMN was confirmed by LC-ESI-MS. FMN was released from tPAD1 by precipitation
